Test results taken from US12091378B2, “Therapeutics for central nervous system disorders” (1GLOBE BIOMEDICAL CO., LTD., priority 2017, dated 2024).
Counter-ions that a name gives are not always drawn.

What was measured:
Microglia = experiment: LPS/IFN-induced microglia activation (Iba1 positive cells); type: cell-based, mice; settings: 50 μM, LPS 10 ng/mL and IFN 20 ng/ml, 48 hours
Protocol: Microglia from P7 mice were treated with lipopolysaccharide (LPS, 10 ng/mL) and Interferon-gama (IFN, 20 ng/ml) to induce activation of microglia for 48 hours. To determine the effects on LPS/IFN-induced microglia activation, DMF or various embodiments of compounds of the invention (all at 50 μM) were individually added into separate culture samples 30 minutes after LPS/IFN were added. Cells were later fixed and processed for immunofluorescence (IF) staining with anti-Iba1 (ionized calcium-binding adaptor molecule 1) antibody. The number of Iba1 positive cells and the total number of cells (Hochest H33342 positive cells which includes dead and live cells) were quantified from 12 consecutive areas under fluorescent microscope with 20×objective.

cerebellar slices [1] = experiment: Remyelination on LPC-induced demyelination in cerebellar slices (MBP immunofluorescence); type: cell-based, mice; settings: 50 μM, 3 days in culture, LPC 2 mg/mL
Protocol: (§1) Specifically, cerebellar slices from 8 week-old female mice were treated with lysophosphatidylcholine (LPC, 2 mg/mL) to induce demyelination, and then treated with representative compound of the invention, Compound 1 (50 μM), for 3 days in culture. The slices were processed for immunofluorescence staining with anti-MBP antibody. The images were captured with Nikon eclipse TE2000 microscope using Spot Advanced software (version 4.3) at 4×magnification.

cerebellar slices [2] = experiment: Remyelination on CPZ-induced demyelination in cerebellar slices (MBP immunofluorescence); type: cell-based, mice; settings: 50 μM, 3 days in culture
Protocol: as §1, with “cuprizone (CPZ)” for “lysophosphatidylcholine (LPC, 2 mg/mL)”, “invention” for “invention,”, “μM)” for “μM),”, “4×magnification. The fluorescence intensity of MBP of the cerebellar slice in each image was measured with NIH Image J.” for “4×magnification.”

[3] = tested on: CPZ-induced demyelination; experiment: Prophylactic treatment of CPZ-induced demyelination in vivo (LFB staining); design: species or system mice; settings: 10 mg/kg oral gavage for 7 weeks, formulations HPC or GHI F505-1
Protocol: As shown in FIGS. 9A-9C, the compound of the present invention (Compound 1) was able to prevent CPZ-induced demyelination in adult female mice. FIG. 9A illustrates the schematic of the study. Eight-week old female mice were fed a diet containing 0.3% (w/w) of CPZ to induce demyelination for 6 weeks. The control mice received regular mouse chow. In the meantime, CPZ fed mice received oral gavage of formulation (Vehicle) or Compound 1 (10 mg/kg) for 7 weeks. At the end of the treatment, mice were perfused, and the brains were collected and processed for analysis. The extent of myelination was examined by staining with Luxol Fast Blue (LFB). Representative images of LFB staining of mouse brain sections are shown in FIG. 9B where midline corpus callosum (CC) is delineated by dotted squares in the top panels (scale bar: 200 μm) and then shown at higher magnification in the lower panels (scale bar: 25 μm). Myelinated axons in the CC from mice fed with normal chow are stained as compacted blue (shown here as gray-colored, same for all following blue-colored pictures). […] Quantitative analysis of myelination of LFB staining is shown in FIG. 9C where myelination is scored as follows: a score of 0 means complete myelination and a score of 4 means complete demyelination. […]

CPZ-induced axon damage [4] = experiment: Prophylactic treatment of CPZ-induced axonal damage in vivo (Bielschowsky's silver staining); design: species or system mice; settings: 10 mg/kg oral gavage for 7 weeks, formulations HPC or GHI F505-1
Excerpt: The mice were fed and treated with the same method as Example 9. The Bielschowsky's silver staining was used to visualize axon fiber in mouse brains. Representative images of silver staining of mouse brains sections are shown in FIG. 10A where midline corpus callosum (CC) is delineated by dotted squares in the top panels (scale bar: 200 μm) and then shown at higher magnification in the lower panels (scale bar: 25 μm). While a linear staining pattern of continuous axon fibers is present in normal control CC, axon damage with interruption of axon fibers and demyelination is observed in the CC of CPZ-treated animals. […] Quantitative analysis of silver-stained axons is shown in FIG. 10B where axon damage is scored as follows: a score of 0 means no axon damage and a score of 4 means complete axon damage. Columns “10-A” and “10-B” indicate samples treated with Compound 1 at 10 mg/kg in formulations HPC or GHI F505-1, respectively. *p<0.05, ***p<0.001 compared with control; ## p<0.01 compared with CPZ with vehicle treatment (n=4 mice).

IGF-2 = IGF-2 in plasma of CPZ MS animal model (ELISA); type: in vivo; settings: 10 mg/kg oral gavage for 7 weeks, CPZ fed mice
Excerpt: IGF2 is a neurotrophic factor which is essential for the development and regeneration of the nervous system, and plays a pivotal role in adult neurogenesis and cognitive function (see Fernadez A M and Torres-Aleman I, 2007, Nat Rev Neurosci 13(4):225-39; Iwamoto T and Ouchi Y, 2014, Rev Neurosci 25(4):559-74). […] FIG. 11A illustrates the schematic of the study. Experimental setup was similar to that in Example 9: eight-week old female mice were fed a diet containing 0.3% (w/w) of CPZ to induce demyelination for 6 weeks. The control mice received regular mouse chow. In the meantime, CPZ fed mice received oral gavage of formulation (Vehicle) or Compound 1 (10 mg/kg) for 7 weeks. At the end of treatment, the plasma was collected and processed for analysis. The levels of IGF-2 in mouse plasma were measured using ELISA. The scatter plot of IGF-2 concentrations found in individual mice is shown in FIG. 11B. **p<0.01 of CPZ plus Compound 1-treated group compared with control (Ctl), or CPZ-treated group (n=4).

[5] = tested on: CPZ-induced demyelination; experiment: Therapeutic treatment of CPZ-induced demyelination in vivo (LFB staining); design: species or system mice; settings: for Demyelination (Score of LFB staining): score 0 complete myelination, 4 complete demyelination, average ± SEM; for recovery from CPZ-induced demyelination and axon damage: therapeutic treatment, Examples 12 and 13
Protocol: As shown in FIGS. 12A-12C, the compound of the present invention was also tested in vivo to determine its therapeutic effect on promoting remyelination on CPZ-induced demyelination in comparison to DMF. Schematic of the study is depicted in FIG. 12A. Eight-week old mice were fed a diet containing 0.3% (w/w) of CPZ to induce demyelination for 6 weeks. The control mice received regular mouse chow. The CPZ fed mice received oral gavage of formulation (Vehicle), DMF or Compound 1 at the beginning of week 6 for two weeks. At the end of treatment, the brains were collected and, post fixed, processed for analysis. The myelin was stained with LFB stain. Representative images of LFB staining of mouse brain sections are shown in FIG. 12B where midline corpus callosum (CC) is delineated by squares in the top panels (scale bar: 200 μm) and then shown at higher magnification in the lower panels (scale bar: 25 μm). Quantitative analysis of myelination of LFB staining is shown in FIG. 12C where myelination is scored as follows: a score of 0 means complete myelination and a score of 4 means complete demyelination. *p<0.05, *** p<0.001 compared with CPZ with vehicle treatment (n=4-6 mice).
(§2) According to the above Examples 12 and 13, the therapeutic effects of Compound 1 and DMF on CPZ-induced demyelination and axon damage were summarized below where quantitative analysis of myelination and axon integrity in adult female mice was performed and results shown in Table 1. The scoring of myelination and axon damage was performed as described in Example 12 and Example 13. The treatments are as indicated. The average scores and SEM are shown. Statistic differences were analyzed by one way ANOVA followed by Tukey test. *p<0.05, **p<0.01, […] compared with normal control; #p<0.05, ##p<0.01, ###p<0.001 compared with CPZ plus vehicle, §§p<0.01 compared with CPZ plus DMF at 10 mg/kg (n=4-6 mice).

CPZ-induced axon damage [6] = experiment: Therapeutic treatment of CPZ-induced axon damage in vivo (silver staining); design: species or system mice; settings: score 0 no axon damage, 4 complete axon damage, average ± SEM
Excerpt: Schematic of this study is depicted in FIG. 13A. Eight-week old female mice were fed a diet containing 0.3% (w/w) of CPZ to induce demyelination for 6 weeks. The control mice received regular mouse chow. The CPZ fed mice received oral gavage of formulation (Vehicle), DMF or Compound 1 at the beginning of week 6 for two weeks. At the end of treatment, the brains were collected, and post fixed, processed for morphological analysis. The axons were stained with Bielschowsky's Silver staining. Representative images of silver staining of mouse brain sections are shown in FIG. 13B where midline corpus callosum (CC) is delineated by white squares in the top panels (scale bar: 200 μm) and then shown at higher magnification in the lower panels (scale bar: 25 μm). Quantitative analysis of axon damage of silver staining is shown in FIG. 13C where axon damage is scored as follows: a score of 0 means no axon damage, and a score of 4 means complete axon damage. **p<0.01, ***p<0.001 compared with CPZ plus vehicle; ##p<0.01 compared with CPZ plus DMF (n=4-6 mice).
as §2

MBP, NF, APP, GFAP, Iba1 = experiment: Molecular markers for myelination, axon integrity and glia activation in brain sections (immunofluorescence); type: in vivo, mouse; settings: CPZ + 10 mg/kg, trend versus CPZ
Protocol: Effects of Compound 1 on molecule markers relevant to myelination, axon integrity and gliosis were also examined in the brain sections from normal control, CPZ-treated, and CPZ plus Compound 1 treated animals. Molecules in mouse brain sections were stained with respective antibodies by immunofluorescence. The fluorescent intensity of MBP- and NF-labeled fibers were measured with Image J. The number of specific antibody-stained cells in 400×microscopic fields were counted. Although statistic analysis is still in progress, the trends of the effects are clear from the images available so far.

EAE mouse model = experiment: Clinical score of mouse EAE model (pilot study); type: in vivo, C57/BL6 mice; settings: 10 mg/ml daily from EAE onset for 20 days
Protocol: EAE mouse model was induced by inoculation of MOG35-55 protein in adult C57/BL6 mice. Mean clinical score of EAE mice treated with vehicle or Compound 1 (10 mg/ml) for a duration of 42 days after immunization was shown in FIG. 14. The treatments were applied daily from the date of EAE onset for 20 days.

[7] = tested on: adult cerebellar granule neurons (CGN); experiment: Adult CGN survival (Cell Counting Kit-8); type: cell-based, mice; settings: 50 μM and 10 μM, 48 hours
Protocol: CGN cells from 8 week-old female mice (C57BL/6) were maintained in neurobasal medium with B27 supplements. 2×10^5 cells were plated in each well of a PLL-coated 48 well plate with 400 μl of culture medium. Various embodiments of novel compounds of the invention at 50 μM (FIG. 8A) and 10 μM (FIG. 8B), CNTF (10 ng/mL) or DMF (50 μM) were added respectively into the cell culture samples for 48 hours. Cell counting solution (Cell Counting Kit-8, Dojindo, 40 μL) was added to the culture, and cells were incubated at 37° C. with 5% CO2 for 20 hours. The optical densities (OD) of absorbance at 450 nm were measured with SpectraMax M3 plate reader.

[8] = 0.1 mg/kg oral gavage for two weeks
[9] = 10 mg/kg oral gavage for two weeks

Row | Structure (SMILES) | inhibiting microglia activation (Iba1 positive cells) (Microglia) | remyelination on LPC-induced demyelination (MBP fluorescence intensity) (cerebellar slices [1]) | remyelination on CPZ-induced demyelination (MBP fluorescence intensity) (cerebellar slices [2]) | prevention of CPZ-induced demyelination (LFB staining) [3] | prevention of CPZ-induced axon damage (silver staining) (CPZ-induced axon damage [4]) | level of IGF-2 in mouse plasma (IGF-2) | Demyelination (Score of LFB staining) [5, 8] | Demyelination (Score of LFB staining) [5, 9] | recovery from CPZ-induced demyelination and axon damage [5] | Axon damage (Score of Silver staining) (CPZ-induced axon damage [6]; [8]) | Axon damage (Score of Silver staining) (CPZ-induced axon damage [6]; [9]) | APP (Axonal damage) (MBP, NF, APP, GFAP, Iba1) | GFAP (Astrogliosis) (MBP, NF, APP, GFAP, Iba1) | Iba 1 (Activated microglia) (MBP, NF, APP, GFAP, Iba1) | MBP (Myelin) (MBP, NF, APP, GFAP, Iba1) | NF (Neural fibers) (MBP, NF, APP, GFAP, Iba1) | persistence of effect on clinical score after termination of treatment (EAE mouse model) | average clinical scores versus vehicle (EAE mouse model; 42 days after immunization, n=5) | effect on adult CGN survival [7]
1 | COC(=O)/C=C/C(=O)OCCCCCCOC(=O)NC(=N)NC(=N)N(C)C [Compound 2] | significant capability for inhibiting microglia activation |  |  |  |  |  |  |  |  |  |  |  |  |  |  |  |  |  | 
2 | COC(=O)/C=C/C(=O)OCc1ccc(COC(=O)NC(=N)NC(=N)N(C)C)cc1 [Compound 1] | significantly better efficacy in comparison to DMF | strong remyelination effects | promotes remyelination | prevents CPZ-induced demyelination | preserved the continuous staining pattern of axon fibers | significantly increase | 2.00 ± 0.26 | 1.33 ± 0.21 | robust recovery | 1.33 ± 0.21 | 0.83 ± 0.31 | ↓ | ↓ | ↓ | ↑ | ↑ | persisted for over two weeks after termination of treatment | significantly lower average clinical scores | 
3 | COC(=O)/C=C/C(=O)OC [DMF, dimethyl fumarate, reference compound] |  |  |  |  |  |  |  | 2.25 ± 0.25 | not significant |  | 2.25 ± 0.25 |  |  |  |  |  |  |  | little effect
